Reference: US20230357179A1, “RAF KINASE INHIBITORS AND METHODS OF USE THEREOF” (Deciphera Pharmaceuticals, LLC, priority 2021, published 2023)

What was measured:
[1] = biological target: T1, B-Raf (V600E) kinase (Homo sapiens, UniProt P15056, V600E); test: Biochemical assay for B-Raf (V600E).1 (coupled pyruvate kinase/lactate dehydrogenase); conditions: read-out: BRAF V600E.1 IC50
T1 construct: B-Raf (V600E) residues 416-766 with a; GST (N); purchased SignalChem
Description: Biochemical Assay for B-Raf (V600E).1
Activity of B-Raf (V600E) (SEQ. ID NO: 4) kinase was determined spectroscopically using a coupled pyruvate kinase/lactate dehydrogenase assay that continuously monitors the ATP hydrolysis-dependent oxidation of NADH (e.g., Schindler et al., Science, 2000, 289, 1938-1942). Assays were conducted in 384-well plates (100 μL final volume) using 0.03 nM B-Raf (SignalChem), 1.5 units pyruvate kinase, 2.1 units lactate dehydrogenase, 1 mM phosphoenol pyruvate, 0.28 mM NADH, 30.1 nM MEK (SignalChem), and 1 mM ATP in assay buffer (100 mM Tris, pH 7.5, 15 mM MgCl2, 0.5 mM DTT, 0.1% octyl-glucoside, 0.002% (w/v) BSA, and 0.002% Triton X-100). Inhibition of B-Raf (V600E) was measured by adding serial diluted test compound (final assay concentration of 1% DMSO). A decrease in absorption at 340 nm was monitored continuously for 6 h at 30° C. on a multi-mode microplate reader (BioTek). The reaction rate was calculated using the 3 to 4 h time frame. The reaction rate at each concentration of compound was converted to percent inhibition using controls (i.e., reaction with no test compound and reaction with a known inhibitor) and IC50 values were calculated by fitting a four-parameter sigmoidal curve to the data using Prism (GraphPad software).

[2] = biological target: T2, B-Raf kinase (Homo sapiens, UniProt P15056); test: Biochemical assay for B-Raf.1 (coupled pyruvate kinase/lactate dehydrogenase); conditions: read-out: BRAF.1 IC50
T2 construct: GST (N); purchased Sigma
T2 sequence (P15056 416-766): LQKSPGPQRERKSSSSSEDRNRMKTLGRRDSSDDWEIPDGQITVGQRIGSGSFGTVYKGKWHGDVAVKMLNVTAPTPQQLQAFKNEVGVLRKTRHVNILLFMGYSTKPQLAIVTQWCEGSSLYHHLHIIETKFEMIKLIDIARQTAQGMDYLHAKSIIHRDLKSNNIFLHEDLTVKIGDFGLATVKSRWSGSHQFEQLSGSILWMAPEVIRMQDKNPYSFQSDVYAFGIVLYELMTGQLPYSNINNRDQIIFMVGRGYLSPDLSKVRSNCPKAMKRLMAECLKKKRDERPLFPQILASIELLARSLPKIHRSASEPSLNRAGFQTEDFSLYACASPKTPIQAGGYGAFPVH
Description: Biochemical Assay for B-Raf.1
(§1) Activity of B-Raf kinase (SEQ. ID NO: 2) was determined spectroscopically using a coupled pyruvate kinase/lactate dehydrogenase assay that continuously monitors the ATP hydrolysis-dependent oxidation of NADH (e.g., Schindler et al., Science, 2000, 289, 1938-1942). Assays were conducted in 384-well plates (100 μL final volume) using 0.13 nM B-Raf (Sigma), 1.5 units pyruvate kinase, 2.1 units lactate dehydrogenase, 1 mM phosphoenol pyruvate, 0.28 mM NADH, 30.1 nM MEK (SignalChem), and 1 mM ATP in assay buffer (100 mM Tris, pH 7.5, 15 mM MgCl2, 0.5 mM DTT, 0.1% octyl-glucoside, 0.002% (w/v) BSA, and 0.002% Triton X-100). Inhibition of B-Raf was measured by adding serial diluted test compound (final assay concentration of 1% DMSO). A decrease in absorption at 340 nm was monitored continuously for 6 h at 30° C. on a multi-mode microplate reader (BioTek). The reaction rate was calculated using the 4 to 5 h time frame. The reaction rate at each concentration of compound was converted to percent inhibition using controls (i.e., reaction with no test compound and reaction with a known inhibitor) and IC50 values were calculated by fitting a four-parameter sigmoidal curve to the data using Prism (GraphPad software).

[3] = biological target: T3, A-Raf kinase (Homo sapiens, UniProt P10398, Y301D/Y302D); test: Biochemical assay for A-Raf.1 (coupled pyruvate kinase/lactate dehydrogenase); conditions: read-out: ARAF.1 IC50
T3 construct: purchased Sigma
T3 sequence (P10398 with tags, fused parts or gaps Y301D/Y302D): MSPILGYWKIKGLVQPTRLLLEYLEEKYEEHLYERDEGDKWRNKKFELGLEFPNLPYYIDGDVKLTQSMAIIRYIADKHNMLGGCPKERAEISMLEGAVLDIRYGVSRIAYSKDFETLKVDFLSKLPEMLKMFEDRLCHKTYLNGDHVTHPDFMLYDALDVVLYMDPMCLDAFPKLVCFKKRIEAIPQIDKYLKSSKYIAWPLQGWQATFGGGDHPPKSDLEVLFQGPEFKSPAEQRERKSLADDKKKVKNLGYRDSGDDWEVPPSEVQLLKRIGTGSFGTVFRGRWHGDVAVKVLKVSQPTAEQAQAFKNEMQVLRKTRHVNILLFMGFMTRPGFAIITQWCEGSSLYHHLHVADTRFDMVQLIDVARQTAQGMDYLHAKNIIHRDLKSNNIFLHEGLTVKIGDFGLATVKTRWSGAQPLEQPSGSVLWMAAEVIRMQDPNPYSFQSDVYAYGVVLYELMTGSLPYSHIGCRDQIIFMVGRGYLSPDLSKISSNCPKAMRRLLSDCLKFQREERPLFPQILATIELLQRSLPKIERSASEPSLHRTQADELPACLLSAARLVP
Description: Biochemical assay for A-Raf.1
as §1, with “A-Raf” for “B-Raf”, “NO. 1)” for “NO: 2)”, “5.55” for “0.13”

[4] = system: Miapaca-2 cells; test: MiaPaca-2 cell proliferation assay (1), resazurin, 96-well; type: cell-based; conditions: Homo sapiens, MIA PaCa-2, inhibition of cell proliferation
Description: MiaPaca-2 Cell Proliferation Assay (1)
Miapaca-2 cells (catalog #CRL-1420) are obtained from the American Type Culture Collect (ATTC, Manassas, VA). Briefly, cells were grown in DMEM supplemented with 10% characterized fetal bovine serum (Invitrogen, Carlsbad, CA), 2.5% New Zealand sourced horse serum and 1% Penicillin/Streptomycin/L-Glutamine at 37° C., 5% CO2, and 95% humidity. Cells are expanded until reaching 70-95% confluency at which point they are subcultured or harvested for assay use. A serial dilution of test compound is dispensed into a 96-well black clear bottom plate in triplicate. Three thousand cells are added per well in 200 μL complete growth medium in the 96-well plate. Plates are incubated for 67-72 hours at 37° C., 5% CO2, and 95% humidity. At the end of the incubation, 40 μL of a 440 μM solution of resazurin (Sigma, St. Louis, MO) in PBS is added to each well of the plate and plates are incubated for an additional 5-6 hours at 37° C., 5% CO2, and 95% humidity. Plates are read on a Synergy2 or equivalent reader (Biotek, Winooski VT) using an excitation of 540 nm and an emission of 600 nm. Data is analyzed using Prism software (GraphPad, San Diego, CA) to calculate IC50 values.

[5] = biological target: T4, C-Raf kinase (Homo sapiens, UniProt P04049, Y340D/Y341D); test: Biochemical assay for C-Raf.1 (coupled pyruvate kinase/lactate dehydrogenase); conditions: read-out: CRAF.1 IC50
T4 construct: Y340D,; GST (N); purchased Sigma
T4 sequence (P04049 307-648 Y340D/Y341D): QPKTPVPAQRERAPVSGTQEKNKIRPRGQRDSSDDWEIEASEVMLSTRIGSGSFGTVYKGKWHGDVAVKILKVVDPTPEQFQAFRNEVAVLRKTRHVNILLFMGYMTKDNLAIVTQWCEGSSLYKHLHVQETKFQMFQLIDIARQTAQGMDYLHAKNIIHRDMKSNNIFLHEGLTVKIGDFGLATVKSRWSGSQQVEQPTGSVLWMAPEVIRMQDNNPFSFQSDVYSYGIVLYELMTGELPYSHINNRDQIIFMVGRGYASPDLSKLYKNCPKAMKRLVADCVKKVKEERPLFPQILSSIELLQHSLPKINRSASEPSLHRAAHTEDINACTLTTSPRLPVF
Description: Biochemical Assay for C-Raf.1
as §1, with “of C-Raf” for “of B-Raf”, “NO: 3)” for “NO: 2)”, “using 0.43” for “using 0.13”, “nM C-Raf” for “nM B-Raf”

[6] = system: A375 cells; test: A375 cell proliferation assay (1), resazurin, 96-well; type: cell-based; conditions: Homo sapiens, A-375, inhibition of cell proliferation
Description: A375 Cell Proliferation Assay (1)
A375 cells (catalog (#CRL-1619) are obtained from the American Type Culture Collect (ATTC, Manassas, VA). Briefly, cells were grown in DMEM High Glucose supplemented with 10% characterized fetal bovine serum (Invitrogen, Carlsbad, CA) and 1% Penicillin/Streptomycin/L-Glutamine at 37° C., 5% CO2, and 95% humidity. Cells are expanded until reaching 70-95% confluency at which point they are sub-cultured or harvested for assay use. A serial dilution of test compound is dispensed into a 96-well black clear bottom plate in triplicate. Two thousand five hundred cells are added per well in 200 μL complete growth medium in the 96-well plate. Plates are incubated for 67-72 hours at 37° C., 5% CO2, and 95% humidity. At the end of the incubation, 40 μL of a 440 μM solution of resazurin (Sigma, St. Louis, MO) in PBS is added to each well of the plate and plates are incubated for an additional 5-6 hours at 37° C., 5% CO2, and 95% humidity. Plates are read on a Synergy2 or equivalent reader (Biotek, Winooski VT) using an excitation of 540 nm and an emission of 600 nm. Data is analyzed using Prism software (GraphPad, San Diego, CA) to calculate IC50 values.

T1 sequence (P15056 416-766 V600E): as the sequence (P15056 416-766) above, with V185E counted along it

Cc1ccc(NC(=O)Nc2cnn(CC(F)(F)F)c2)cc1-c1cc(OCCO)nc(N2CCOCC2)c1 [Example 45] showed an IC50 [1] of at most 100 nM, an IC50 [2] of over 1000 nM and an IC50 [3] of over 1000 nM. The IC50 [4] was 1000 to 10000 nM and the IC50 [5] was 100 to 500 nM.
In the case of COC(=O)Nc1cc(-c2cc(-c3cc(NC(=O)NCCC4CN(C)C4)cnc3C)cc(OCCO)n2)ccn1 [Example 183], the IC50 [1] is reported as over 1000 nM, the IC50 [2] is reported as over 1000 nM and the IC50 [3] is reported as over 1000 nM. The IC50 [5] was over 1000 nM and the IC50 [6] was 1000 to 10000 nM.
For Cc1cc(F)c(NC(=O)NCCC(C)(C)C)cc1-c1cc(OCCO)nc(C2CCOCC2)c1 [Example 9], the IC50 [1] was at most 100 nM, the IC50 [2] was at most 100 nM and the IC50 [3] was over 1000 nM. For the same molecule, the IC50 [5] was at most 100 nM and the IC50 [6] was 100 to 500 nM.
In the case of Cc1ccc(NC(=O)Nc2cnn(C(C)(C)C)c2)cc1-c1cc(OCCO)nc(N2CCOCC2)c1 [Example 44], the IC50 [1] is reported as at most 100 nM, the IC50 [2] is reported as 100 to 500 nM and the IC50 [3] is reported as over 1000 nM. It also gave an IC50 [4] of 1000 to 10000 nM and an IC50 [5] of 100 to 500 nM.
For CNc1cc(-c2cc(-c3cc(NC(=O)NCCC4(C)CC4)c(F)cc3C)cc(OCCO)n2)ccn1 [Example 27], the IC50 [1] was at most 100 nM, the IC50 [2] was at most 100 nM and the IC50 [3] was over 1000 nM. For the same molecule, the IC50 [5] was at most 100 nM and the IC50 [6] was 500 to 1000 nM.
With Cc1ccc(NC(=O)NCCC(C)(C)C)cc1-c1cc(N2CCOCC2)nc(N2CC(O)C2)n1 [Example 11] the IC50 [1] was at most 100 nM, the IC50 [2] was 500 to 1000 nM and the IC50 [3] was over 1000 nM. The IC50 [5] was 100 to 500 nM and the IC50 [6] was 1000 to 10000 nM.
For Cc1cc(F)c(NC(=O)NC[C@H]2CCO2)cc1-c1cc(OCCO)nc(-c2ccnc3[nH]ncc23)c1 [Example 93], the IC50 [1] was over 1000 nM, the IC50 [2] was over 1000 nM and the IC50 [3] was over 1000 nM. It also gave an IC50 [5] of over 1000 nM and an IC50 [6] of 1000 to 10000 nM.
For Cc1cc(F)c(NC(=O)NCCC(C)(C)C#N)cc1-c1cc(OCCO)nc(-c2ccncc2)c1 [Example 41], the IC50 [1] was at most 100 nM, the IC50 [2] was 100 to 500 nM and the IC50 [3] was over 1000 nM. For the same molecule, the IC50 [5] was 100 to 500 nM and the IC50 [6] was 1000 to 10000 nM.
Molecule Cc1ncc(NC(=O)NCCC(C)(C)C)cc1-c1cc(N2CCOCC2)nc(N2CCOCC2)c1 [Example 19] has an IC50 [1] of at most 100 nM, an IC50 [2] of 500 to 1000 nM and an IC50 [3] of over 1000 nM. The IC50 [5] was 100 to 500 nM and the IC50 [6] was 1000 to 10000 nM.
